# Reference: patent US4559323A, “A41030 Antibiotics” (Eli Lilly and Company, priority 1984, dated 1985)
# Read-outs that look alike come from different tables or passages of the source.
# Assays:
# [1] = tested on: Bacteroides vulgatis; experiment: Agar-dilution MIC (anaerobes); format: cell-based; settings: Table 12; 24-hour; B. vulgatis 1563
# From the text: (§1) The A41030 antibiotics, factors A, B, and C, are active against a genus of anaerobic bacteria identified as Bacteroides sp., the 24-hour MIC values being determined by the agar-dilution method, and are set forth in Table 12, which follows.
# [2] = tested on: Bacteroides corrodens; experiment: Agar-dilution MIC (anaerobes); format: cell-based; settings: Table 12; 24-hour; B. corrodens 1874
# From the text: as §1
# [3] = tested on: Peptostreptococcus anaerobius; experiment: Agar-dilution MIC (anaerobes); format: cell-based
# [4] = tested on: Salmonella typhi; experiment: Agar-dilution MIC; format: cell-based; settings: Table 17, 24 hours
# [5] = tested on: Pc. constellatus; experiment: Agar-dilution MIC (anaerobes); format: cell-based, Peptococcus constellatus; settings: Table 15; Pc. constellatus 1468
# Description: (§2) The MIC values were determined by the agar-dilution method, and are recorded in Table 15, which follows.
# [6] = tested on: Bacteroides fragilis; experiment: Agar-dilution MIC (anaerobes); format: cell-based
# From the text: (§3) The agar-dilution procedure described by the International Collaborative study (ICS) group was used to determine the minimum inhibitory concentrations (MIC's).
# [7] = tested on: Peptostreptococcus intermedius; experiment: Agar-dilution MIC (anaerobes); format: cell-based; settings: Table 15
# [8] = tested on: Peptococcus prevoti; experiment: Agar-dilution MIC (anaerobes); format: cell-based
# [9] = tested on: Clostridium difficile; format: cell-based; settings: Table 14; Clostridium difficile 2994
# [10] = tested on: B. thetaiotaomicron; format: cell-based
# From the text: as §3
# [11] = Solubility in solvents; format: physicochemical; settings: solvents as named
# From the text: The seven antibiotic factors are recovered from the fermentation and are obtained as a mixture, the A41030 complex. It will be recognized that the ratio of the factors in the A41030 complex will vary, depending upon the fermentation conditions used. The individual factors […], and G are separated and isolated as individual compounds, as hereinafter described.
# [12] = Electrometric titration (pKa); format: physicochemical; settings: electrometric titration in 66% dimethylformamide in water
# [13] = tested on: Fusobacterium necrophorum; experiment: Agar-dilution MIC (anaerobes); format: cell-based; settings: Table 14; Fusobacterium necrophorum 6054A
# [14] = tested on: Peptococcus asaccharolyticus; experiment: Agar-dilution MIC (anaerobes); format: cell-based; settings: Table 15
# Description: as §2
# [15] = tested on: Bacteroides corrodens; experiment: Agar-dilution MIC (anaerobes); format: cell-based; settings: Table 14; Bacteroides corrodens 1874
# [16] = tested on: Hemophilus influenzae; experiment: Agar-dilution MIC; format: cell-based; settings: Table 17, 24 hours
# [17] = tested on: Clostridium perfringens; format: cell-based; settings: Table 14; Clostridium perfringens 81
# [18] = tested on: Fusobacterium symbiosum; experiment: Agar-dilution MIC (anaerobes); format: cell-based; settings: Table 14; Fusobacterium symbiosum 1470
# [19] = tested on: Streptococcus sp. (Group D); experiment: Agar-dilution MIC; format: cell-based; settings: Table 17, 24 hours
# From the text: as §3
# [20] = tested on: Bacteroides vulgatis; experiment: Agar-dilution MIC (anaerobes); format: cell-based; settings: Table 14; Bacteroides vulgatis 1211
# [21] = tested on: Clostridium septicum; experiment: Agar-dilution MIC (anaerobes); format: cell-based; settings: Table 14; Clostridium septicum 1128
# [22] = tested on: S. pyogenes; experiment: In vivo oral activity against S. pyogenes in mice
# [23] = tested on: Clostridium difficile; format: cell-based; settings: Table 16
# From the text: The A41030 antibiotic factors A, B, C, D, E, F, and G, are also active against a number of strains of Clostridium difficile, as determined by the agar-dilution method.
substance,measurement,setting,value
A41030 factor C,MIC,[1],32 µg/mL
same,MIC,[2],32 µg/mL
same,MIC,"[3]; Table 14, Peptostreptococcus anaerobius 1428",≤ 0.25 µg/mL
same,MIC,"[3]; Table 15, Ps. anaerobius 52",0.25 µg/mL
same,MIC,"[3]; Table 15, Ps. anaerobius 59",0.25 µg/mL
same,MIC,"[3]; Table 15, Ps. anaerobius 1418",≤ 0.03 µg/mL
same,MIC,"[3]; Table 15, Ps. anaerobius 1428",0.25 µg/mL
same,MIC,"[3]; Table 15, Ps. anaerobius 1451",0.25 µg/mL
same,MIC,"[3]; Table 15, Ps. anaerobius 1477",0.25 µg/mL
same,MIC,[4]; Salmonella typhi 1335,> 128 µg/mL
same,MIC,[4]; Salmonella typhi X514,> 128 µg/mL
same,MIC,[5],0.5 µg/mL
same,MIC,"[6]; Table 12, 24-hour, B. fragilis 2",32 µg/mL
same,MIC,"[6]; Table 12, 24-hour, B. fragilis 9",32 µg/mL
same,MIC,"[6]; Table 12, 24-hour, B. fragilis 103",32 µg/mL
same,MIC,"[6]; Table 12, 24-hour, B. fragilis 104",32 µg/mL
same,MIC,"[6]; Table 12, 24-hour, B. fragilis 106",32 µg/mL
same,MIC,"[6]; Table 12, 24-hour, B. fragilis 107",32 µg/mL
same,MIC,"[6]; Table 12, 24-hour, B. fragilis 108",64 µg/mL
same,MIC,"[6]; Table 12, 24-hour, B. fragilis 110",64 µg/mL
same,MIC,"[6]; Table 12, 24-hour, B. fragilis 111",32 µg/mL
same,MIC,"[6]; Table 12, 24-hour, B. fragilis 112",32 µg/mL
same,MIC,"[6]; Table 12, 24-hour, B. fragilis 113",32 µg/mL
same,MIC,"[6]; Table 12, 24-hour, B. fragilis 1451",64 µg/mL
same,MIC,"[6]; Table 12, 24-hour, B. fragilis 1470",64 µg/mL
same,MIC,"[6]; Table 12, 24-hour, B. fragilis 1877",32 µg/mL
same,MIC,"[6]; Table 12, 24-hour, B. fragilis 9032",32 µg/mL
same,MIC,"[6]; Table 14, Bacteroides fragilis 1877",16 µg/mL
same,MIC,"[6]; Table 14, Bacteroides fragilis 1936B",32 µg/mL
same,MIC,[7]; Ps. intermedius 1264,≤ 0.03 µg/mL
same,MIC,[7]; Ps. intermedius 1624,1.0 µg/mL
same,MIC,"[8]; Table 14, Peptococcus prevoti 1281",≤ 0.25 µg/mL
same,MIC,"[8]; Table 15, Pc. prevoti 1281",1.0 µg/mL
same,MIC,"[8]; Table 15, Pc. prevoti 1293",0.5 µg/mL
same,MIC,"[8]; Table 15, Pc. prevoti 1407",1.0 µg/mL
same,MIC,[9],16 µg/mL
same,MIC,"[10]; Table 12, 24-hour, B. thetaiotaomicron 1438",32 µg/mL
same,MIC,"[10]; Table 12, 24-hour, B. thetaiotaomicron 1900A",128 µg/mL
same,MIC,"[10]; Table 14, Bacteroides thetalotaomicron 1438",64 µg/mL
same,Solubility,[11],soluble in the same solvents as factor A
same,"pKa, first titratable group",[12],about 5.5
same,MIC,[13],16 µg/mL
same,MIC,[14]; Pc. asaccharolyticus 1302,0.125 µg/mL
same,MIC,[14]; Pc. asaccharolyticus 1344,1.0 µg/mL
same,MIC,[15],32 µg/mL
same,MIC,[16]; Haemophilus influenzae 251,4 µg/mL
same,MIC,[16]; Haemophilus influenzae Brun,16 µg/mL
same,MIC,[17],1.0 µg/mL
same,MIC,[18],1.0 µg/mL
same,MIC,[19]; Streptococcus sp. Group D 9960,4 µg/mL
same,MIC,[19]; Streptococcus sp. Group D X66,2 µg/mL
same,MIC,[20],32 µg/mL
same,MIC,[21],8 µg/mL
same,in vivo oral activity,[22],> 300 mg./kg.X2
same,MIC,[23]; C. difficile 78,1.0 µg/mL
same,MIC,[23]; C. difficile 107B,1.0 µg/mL
same,MIC,[23]; C. difficile 111F,2 µg/mL
same,MIC,[23]; C. difficile 1153,2 µg/mL
same,MIC,[23]; C. difficile 2634,2 µg/mL
same,MIC,[23]; C. difficile 3424-5B,1.0 µg/mL
same,MIC,[23]; C. difficile 3816,2 µg/mL
same,MIC,[23]; C. difficile 3950,2 µg/mL
same,MIC,[23]; C. difficile 6890,2 µg/mL
same,MIC,[23]; C. difficile 8484,1.0 µg/mL
same,MIC,[23]; C. difficile A-194,2 µg/mL
same,MIC,[23]; C. difficile A-195,1.0 µg/mL
same,MIC,[23]; C. difficile A-196,2 µg/mL
same,MIC,[23]; C. difficile A-279,2 µg/mL
same,MIC,[23]; C. difficile A-280,1.0 µg/mL
same,MIC,[23]; C. difficile A-281,2 µg/mL
same,MIC,[23]; C. difficile WAL-2112,2 µg/mL
same,MIC,[23]; C. difficile WAL-3657,2 µg/mL
same,MIC,[23]; C. difficile WAL-4268,1.0 µg/mL
